# Source: patent US11974990B2, “TXNIP-TRX complex inhibitors and methods of using the same” (City of Hope, priority 2018, dated 2024)
# Entries after “also recorded” stand apart in the source; their conditions may differ.
# Experiments:
# TXNIP = molecular target: T1, TXNIP (Homo sapiens, UniProt Q9H3M7); assay: DARTS assay (drug affinity responsive target stability) in THP1 cell extracts; format: binding; settings: THP1 extracts after 25 mM glucose 72 h; 10 and 20 minutes, 0.5 to 4 uM lanes (FIG. 15)
# T1 construct: Cell extracts were prepared; endogenous in cells; host or cells: THP1 cell lysate (25 mM glucose, 72 h)
# T1 sequence (Q9H3M7 1-391): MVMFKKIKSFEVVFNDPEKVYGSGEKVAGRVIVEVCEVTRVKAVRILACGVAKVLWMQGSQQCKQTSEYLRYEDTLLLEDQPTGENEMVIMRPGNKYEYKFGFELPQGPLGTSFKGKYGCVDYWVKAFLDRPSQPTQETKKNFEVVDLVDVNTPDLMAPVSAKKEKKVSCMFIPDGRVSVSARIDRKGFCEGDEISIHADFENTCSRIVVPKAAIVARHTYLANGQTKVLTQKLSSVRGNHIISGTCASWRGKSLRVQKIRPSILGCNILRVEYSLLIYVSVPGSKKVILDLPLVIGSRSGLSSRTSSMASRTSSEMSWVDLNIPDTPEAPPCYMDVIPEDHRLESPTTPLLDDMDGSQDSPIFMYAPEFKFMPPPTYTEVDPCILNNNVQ
# Procedure: FIG. 15. […] THP1 cell were cultured in RPMI 1640 medium in 25 mM glucose for 72 hours. Cell extracts were prepared. C1 was added at the indicated concentrations and protease was added except in control cells. Aliquots were withdrawn at 10, 20, 30 and 40 minutes and loaded onto 10% SDS gels. C1: compound 1; control: without protease.
# Assay 3: DARTS Assay (drug affinity responsive target stability). We adopted the DARTS assay because it is a straightforward method to check if a compound interacts with TXNIP. In this assay, when a compound binds to its target molecule, it can reduce the rate of its proteolytic digestion.
# The drug affinity response target stability assay (DARTS assay) is a method to identify potential protein targets (binders) of small molecules. The advantage of this method is being able to use the native small molecule without having to immobilize or modify the […] (e.g., by incorporation of biotin, fluorescent molecules, radioisotope, or photo-affinity labels). In this case, it relies on the protection against proteolysis conferred on TXNIP by interaction with a small molecule (lead compound).
# Drug affinity responsive target stability (DARTS) assay. DARTS assay was conducted according to a published protocol (Lomenick et al., 2009; Pai et al., 2015). THP1 cells were lysed with extract buffer. […]
# TXNIP mRNA = TXNIP mRNA expression (RT-PCR) in human 1.1B4 pancreatic β cells; format: cell-based; settings: 1.1B4 β cells, 25 mM glucose, 72 h (FIG. 12 left)
# Procedure: (§1) FIG. 12. […] Human 1.1B4 β cells were cultured in 25 mM glucose with C1 (uM) for 72 h. Total RNA was prepared. RT-PCR was performed. Data shown are the mean+SEM from triplicates. Statistical analysis was performed for each column vs. HG DMSO using one-way ANOVA: *<0.0001.
# (§2) RNA extraction and quantitative RT-PCR. RNA was extracted using the Direct-zol™ RNA MiniPrep Plus (Zymo Research). Reverse transcription of RNA samples into cDNA was performed using the GeneAmp RNA PCR Kit (Applied Biosystems), dNTP (from Roche Applied Science), Rnase inhibitor, MULV Reverse Transcriptase and Random hexamers reagent (all from Invitrogen). Diluted cDNA was quantified using real-time PCR performed with Power SYBR Green qPCR MasterMix (Applied Biosystem) and 7500 real-time PCR system (Applied Biosystems). The HPRT1 gene was used as an internal control.
# TNF-α mRNA = TNF-α mRNA expression (RT-PCR) in human 1.1B4 pancreatic β cells; format: cell-based; settings: 1.1B4 β cells, 25 mM glucose, 72 h (FIG. 12 right)
# Procedure: as §1, §2
smiles,measurement,setting,value
"CC(C)C(C(=O)O)N1C(=O)c2ccncc2C1=O (stereo not drawn) [Compound C1, 2-(1,3-dioxo-1,3-dihydro-2H-pyrrolo[3,4-c]pyridin-2-yl)-3-methylbutanoic acid]",protection of TXNIP from proteolysis,TXNIP,stabilizes TXNIP by binding to it; also recorded: bind to TXNIP and prevent its proteolysis; also recorded: protects TXNIP from proteolysis
same,TXNIP mRNA expression,TXNIP mRNA,affects TXNIP and TNF-α mRNA expression; also recorded: strongly inhibited TXNIP mRNA expression
same,TNF-α mRNA expression,TNF-α mRNA,affects TXNIP and TNF-α mRNA expression; also recorded: decreased TNF-α expression
